We go through two compounds from ChEMBL document CHEMBL1125935, “(Phenylmethoxy)phenyl derivatives of omega-oxo- and omega-tetrazolylalkanoic acids and related tetrazoles. Synthesis and evaluation as leukotriene D4 receptor antagonists” (J Med Chem, 1991).

SMILES strings stand for the structures.

The species entered for assay [1] is Cavia porcellus. In words: Antagonistic activity with LTD4 as agonist in ileum tissue of guinea pig smooth muscles. In kind it is functional.
The species entered for assay [2] is Cavia porcellus. Description: pA2 value on guinea pig trachea tissue in presence of LTE4 as agonist. Particulars: read-out: pA2 (converted). Type of assay: functional.
Assay [3] is filed under the species Cavia porcellus. In words: Antagonistic activity with LTE4 as agonist in trachea tissue of guinea pig smooth muscles. In kind it is functional, Muscle tissue.
For assay [4], the species on record is Cavia porcellus. In words: Antagonistic activity with LTC4 as agonist in trachea tissue of guinea pig smooth muscles. Type of assay: functional, Muscle tissue.
For assay [5], the species on record is Cavia porcellus. Description: pA2 value on guinea pig ileum tissue in presence of LTD4 as agonist. Type of assay: functional. The settings on record: read-out: pA2 (converted).
The species entered for assay [6] is Cavia porcellus. Description: Antagonistic activity with Histamin as agonist in ileum tissue of guinea pig smooth muscles. In kind it is functional.
For assay [7], the species on record is Cavia porcellus. In words: Antagonistic activity with LTD4 as agonist in trachea tissue of guinea pig smooth muscles. In kind it is functional, Muscle tissue.
For assay [8], the species on record is Cavia porcellus. In words: pA2 value on guinea pig ileum tissue in presence of LTE4 as agonist. In kind it is functional. Particulars: read-out: pA2 (converted).
For assay [9], the species on record is Cavia porcellus. In words: pA2 value on guinea pig trachea tissue in presence of LTD4 as agonist. The settings on record: read-out: pA2 (converted). In kind it is functional.
The species entered for assay [10] is Cavia porcellus. Description: Antagonistic activity with LTE4 as agonist in ileum tissue of guinea pig smooth muscles. Type of assay: functional.
The species entered for assay [11] is Cavia porcellus. Description: Antagonistic activity with LTC4 as agonist in ileum tissue of guinea pig smooth muscles. Type of assay: functional.
The species named for assay [12] is Cavia porcellus. Description: Antagonistic activity with LTE4 as agonist in parenchyma tissue of guinea pig smooth muscles. In kind it is functional, Muscle tissue.
For assay [13], the species on record is Cavia porcellus. Description: Antagonistic activity with Carbamylcholine as agonist in trachea tissue of guinea pig smooth muscles. Type of assay: functional, Muscle tissue.
For assay [14], the species on record is Cavia porcellus. In words: Antagonistic activity with LTD4 as agonist in parenchyma tissue of guinea pig smooth muscles. Type of assay: functional, Muscle tissue.
The species named for assay [15] is Cavia porcellus. In words: Antagonistic activity with U-46,619 as agonist in trachea tissue of guinea pig smooth muscles. In kind it is functional, Muscle tissue.
For assay [16], the species on record is Cavia porcellus. Description: pA2 value on guinea pig parenchyma tissue in presence of LTD4 as agonist. Type of assay: functional. The settings on record: read-out: pA2 (converted).
For assay [17], the species on record is Cavia porcellus. In words: pA2 value on guinea pig parenchyma tissue in presence of LTE4 as agonist. In kind it is functional. The settings on record: read-out: pA2 (converted).
For assay [18], the species on record is Cavia porcellus. In words: Antagonistic activity with Bradykinin as agonist in ileum tissue of guinea pig smooth muscles. Type of assay: functional.

A word on the pKB: it is −log10 of the KB, conventionally taken in molar units. A low value points to a large KB. On to `CCCc1c(COc2ccc(Cc3nnn(CCCc4nnn[n-]4)n3)cc2)ccc(C(C)=O)c1O.[Na+]`, for which the pKB is on record as 7.84 in the assay filed under Cavia porcellus [1]; 7.57 in the assay listed under Cavia porcellus [3]; 5.67 in the assay listed under Cavia porcellus [4]; under 5 in the assay listed under Cavia porcellus [6]; 6.69 in the assay filed under Cavia porcellus [7]; 8.37 in the assay filed under Cavia porcellus [10]. In the assay filed under Cavia porcellus [11], this compound came in with a pKB of 5.39. The Kb is 26.9 nM in the assay listed under Cavia porcellus [2], 12 nM in the assay filed under Cavia porcellus [5], 3.63 nM in the assay listed under Cavia porcellus [8] and 204 nM in the assay listed under Cavia porcellus [9].

Regarding `CCc1c(COc2ccc(C(=O)CC(C)(C)CC(=O)[O-])cc2)ccc(C(C)=O)c1O.[Na+]`, the pKB is on record as 7.46 in the assay listed under Cavia porcellus [1]; 7.09 in the assay filed under Cavia porcellus [3]; 7.13 in the assay filed under Cavia porcellus [12]; under 5 in the assay filed under Cavia porcellus [4]; under 5 in the assay filed under Cavia porcellus [13]; under 5 in the assay listed under Cavia porcellus [6]. The pKB is 6.74 in the assay filed under Cavia porcellus [14]; under 5 in the assay filed under Cavia porcellus [15]; 6.52 in the assay filed under Cavia porcellus [7]; 7.73 in the assay listed under Cavia porcellus [10]; under 5 in the assay listed under Cavia porcellus [11]; under 5 in the assay listed under Cavia porcellus [18]. The Kb was 63.1 nM in the assay listed under Cavia porcellus [2], 9.77 nM in the assay filed under Cavia porcellus [8], 138 nM in the assay listed under Cavia porcellus [16] and 36.3 nM in the assay listed under Cavia porcellus [17].
